{"source": "patent US11058772B2", "about": "“(Bacterio)chlorophyll photosensitizers for treatment of eye diseases and disorders” (Yeda Research and Development Co. Ltd., priority 2011, dated 2021)", "key": {"[1]": {"tested_on": "de-epithelialized rabbit cornea", "experiment": "Overall accumulation of photosensitizer by the rabbit cornea (optical absorption at 755 nm)", "assay_type": "in vitro ADME", "conditions": "exposure to saline solution for 10, 20 and 30 min; increased with time", "experimental": "Eyes of rabbits were de-epithelialised mechanically immediately post mortem. For most studies, 6 rabbits were used, wherein 6 eyes of 6 rabbits were exposed to the bacteriochlorophyll test compound for 10, 20 and 30 minutes (2 eyes for each test) using an eye cap, while the contralateral eyes were left untreated and served as controls. The corneas were removed and the central buttons of 8-mm diameter were punched out with a round trephine and placed onto the outer side of a polymethylmethacrylate cuvette in the area of light beam passage. Absorption spectra were recorded, and optical density (OD) at 600-900 nm (in most cases at 755 nm) was measured using V-570 spectrophotometer (Jam), Japan).\nSix eyes of 3 euthanized rabbits were de-epithelialized mechanically immediately post mortem. Five of these eyes were exposed to WST11 in saline (WST11-S solution) for 10, 20 and 30 min, using an eye cap, and the optical absorption at 755 nm of the washed corneas was determined as described in Materials and Methods. One eye served as untreated control."}, "[2]": {"tested_on": "de-epithelialized rabbit cornea", "experiment": "Photobleaching of photosensitizer in ex-vivo treated corneas", "conditions": "20 min pretreatment", "experimental": "Corneas of eyes from euthanized rabbits were de-epithelialized. Usually, 5 rabbits were tested, and 8 of the 10 eyes were pretreated for 20 minutes with a bacteriochlorophyll derivative in saline (Bchl-S), using an eye cap. The solution excess was carefully tipped off with filter paper. The eyes were irradiated for the specified time duration: 0, 10, 30, and 60 min (two corneas per time frame). Additional two eyes were used as control. The corneas were removed, and the central buttons of 8-mm diameter were punched out with a round trephine. Absorption spectra were recorded using V-570 spectrophotometer (Jasco, Japan).\nIt was previously described by the present inventors that generation of oxygen radicals upon illumination of certain bacteriochlorophyll derivatives such as WST11 in the absence of serum albumin is accompanied by bleaching of the NIR transition and absorption increase at ˜645 nm due to the photochemical generation of a chlorophyll-like molecules (Ashur et al. 2009). Such changes are therefore important markers for the photochemical activity of such bacteriochlorophyll derivatives in situ. […] Results obtained for 10 corneas of 5 euthanized rabbits treated with WST11 in saline are presented herein.\nEight de-epithelialized eyes were retreated with WST11-S for 20 min using an eye cap, and the remaining 2 eyes served as control. […] In parallel, the absorption increased at 645 nm (upward arrow), typical to the corresponding chlorin derivative formation by the photochemical interaction of WST11 with molecular oxygen (Ashur et al., 2009)"}, "[3]": {"tested_on": "rabbit cornea (keratocytes, endothelium), retina", "experiment": "Histology and endothelial staining after in vivo treatment", "conditions": "two days after treatment", "experimental": "Forty eight hours or 1 week after treatment with Bchl-S, Bchl-D, RF or RF-D, rabbits were euthanized, and the eyes were immediately enucleated and fixated in Davidson's fixative (48 hour post treatment) or in 4% formaldehyde (1 week post treatment). […] sections were prepared from either the whole eye or corneas and stained with hematoxylin-eosin (H&E). The pathology of the corneal and retinal sections was examined. The sections were photographed with a digital video camera (Nikon DS-Ril, Japan), mounted on a light microscope (E-800 Leica, Germany). Keratocyte and endothelial cell densities were counted in 2 areas of 2 central histological sections and calculated, using Image-Pro software (MediaCybernetics, MD, USA). Rabbits underwent analysis of corneal endothelial damage 1 day post treatment, using alizarine red S and trypan blue staining as described in Spence and […], 1976. The treatment included either a 20-minute pretreatment with Bchl-S or Bchl-D solutions, followed by 30-minute irradiation at 755 nm (2 rabbits), or only a 30-minute irradiation at 760 nm (2 rabbits). Contralateral non-treated eyes served as controls. One rabbit underwent treatment with WST11 in saline (WST11-S; 20-minute incubation, 30-minute irradiation at 755 nm). Six rabbits underwent treatment with WS[…] (n=4, 20-minute incubation, 30-minute irradiation at 755 nm), or with RF-D (n=2, 30-minute incubation, 30-minute irradiation at 370 nm) as described above (In-vivo studies section). Contralateral eyes were used as control."}, "[4]": {"tested_on": "rabbit cornea keratocytes", "experiment": "Staining for apoptosis (TUNEL assay)", "assay_type": "in vivo", "conditions": "one day postoperatively", "experimental": "For apoptosis detection, rabbits were euthanized one day post Bchl-S or Bchl-D treatment. Their corneas were removed, fixated in 4% formaldehyde and embedded in paraffin. […] central sections were prepared from the corneas, placed on microscope slides and deparaffinized. Peroxidase-based terminal deoxyribonucleotidyl transferase-mediated dUTP-digoxigenin nick and labeling (TUNEL) assay was performed according to the manufacturer's instructions (Apop-Tag assay, Chemicon, Merck Millipore, Darmstadt, Germany)."}, "rabbit sclera [5]": {"tested_on": "rabbit sclera", "experiment": "Depth of penetration into the rabbit sclera (fluorescence microscopy)", "assay_type": "in vitro ADME", "conditions": "ex vivo using eye cap and in-situ using Merocel sponge", "experimental": "Test compound solution was applied in the supero-temporal or infero-nasal (alternating) quadrant of the rabbit by a curved plastic or metal glide with attached Merocel® sponge connected by a tube that ran along the glide outside. The glide was inserted through a conjunctival opening at the limbus (see FIGS. 17A-17B). After placing the glide attached to the sclera, the tube was connected to a syringe or pump, and the test compound reservoir was injected to impregnate the sclera. Application of the photosensitizer was continued for 10 or 30 minutes. Afterwards, the glide with the Merocel® was withdrawn.\nThe treated scleral area and the opposing control sclera were trephined with a round skin trephine of 8-mm diameter and scissors and immediately frozen. Sagittal slices of 20 microns were dissected with a cryomicrotome at the central area of the scleral button. The fluorescence intensity at 755 nm was recorded upon excitation at 740 nm using a fluorescence microscope (Olympus, Japan)."}, "rabbit sclera [6]": {"tested_on": "rabbit sclera", "experiment": "Biomechanical testing of rabbit sclera treated ex vivo, NIR illumination through the anterior eye segment", "conditions": "20 min incubation", "experimental": "The corneal and scleral strips were clamped horizontally, at a distance of 6 mm, between the jaws of a microcomputer-controlled biomaterial tester (Minimat, Germany) with a 200 Newton force cell (FIG. 1). Controlled tightening of screws was performed with a calibrated screwdriver at a preset torque of 9 cN.m (Torqueleader, England). The strain was increased linearly at a rate of 1.0 mm/min and was measured up to tissue rupture. Young's modulus was calculated by the testing machine. Ultimate stress and Young's modulus were expressed in Mega Pascal (MPa) units.\nSix eyes of three rabbits were enucleated. The posterior eye area up to the equatorial line was incubated using an eye cap with 2.5 mg/ml solution of WST11 in saline pH 7.3 for 20 minutes and then illuminated by NIR illumination through the anterior cornea using a diode laser (755 nm, 0.5 W) and three mirror fundus lens (FIGS. 18A-18C) for 30 minutes. Strips of sclera were cut and tested as described in Materials and Methods."}}}
{"smiles": "CCC1C2=Cc3c(C)c(C(=O)NCCS(=O)(=O)[O-])c4[n]3[Pd][n]3c(c(C)c(C(C)=O)c3=CC(=N2)C1C)=CC1=NC(=C4CC(=O)OC)C(CCC(=O)[O-])C1C.[K+].[K+]", "note": "(stereo not drawn) [WST11, Palladium 3^1-oxo-15-methoxycarbonylmethyl-rhodobacteriochlorin 13^1-(2-sulfoethyl)amide dipotassium salt]", "values": [{"measurement": "optical density of the impregnated corneas at 755 nm", "setting": "[1]", "result": "≤ 1.71", "unit": "OD units"}, {"measurement": "755-nm absorption of corneal WST11 diminished by", "setting": "[2]; NIR illumination 10 min", "result": 30, "unit": "%"}, {"measurement": "755-nm absorption of corneal WST11 diminished by", "setting": "[2]; NIR illumination 30 min", "result": 50, "unit": "%"}, {"measurement": "755-nm absorption of corneal WST11 diminished by", "setting": "[2]; NIR illumination 60 min", "result": 75, "unit": "%"}, {"measurement": "corneal edema (histology)", "setting": "[3]", "result": "marked edema"}, {"measurement": "keratocytes in stroma (histology)", "setting": "[3]", "result": "reduced number of keratocytes throughout the stroma"}, {"measurement": "endothelial cell layer / damage to the endothelium", "setting": "[3]; H&E and vital staining, listed as WST11-S, dipotassium salt", "result": "appeared intact"}, {"measurement": "cornea swelling (thickness)", "setting": "[3]; histology", "result": 890, "unit": "μm"}, {"measurement": "endothelial counts, treatment vs control", "setting": "[3]; P=0.47", "result": "no statistical difference"}, {"measurement": "location of TUNEL-positive keratocytes", "setting": "[4]", "result": "outer ½ of anterior stroma"}, {"measurement": "penetration into sclera", "setting": "rabbit sclera [5]", "result": "penetrated into sclera tissue"}, {"measurement": "increase in Young's modulus", "setting": "rabbit sclera [6]; NIR through anterior cornea", "result": 54, "unit": "%"}, {"measurement": "increase in maximal stress", "setting": "rabbit sclera [6]; NIR through anterior cornea", "result": 42, "unit": "%"}, {"measurement": "mean maximal stress", "setting": "rabbit sclera [6]; NIR through anterior cornea 30 min, control 4.65±1.15", "result": "6.59±1.32", "unit": "MPa"}, {"measurement": "mean Young's modulus", "setting": "rabbit sclera [6]; NIR through anterior cornea 30 min, control 25.25±5.30", "result": "38.83±6.89", "unit": "MPa"}]}
